{"source": "PubChem BioAssay AID1919006", "about": "(Molecular Pharmacology Branch, DTP, NCI, 2023);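 further: spheroids exposed to compounds for seven days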", "test_system": "885512-296-R-J2-PDC complex spheroid growth, % test/control", "assay": "Anticancer human tumor 885512-296-R-J2-PDC patient-derived breast carcinoma cell line growth inhibition [AhR]", "conditions": "for IC50: curve of first compound; for viability, T/C: stronger effect = lower value", "summary_of_the_method": "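Complex tumor spheroids co-cultured with HUVEC and human MSC stroma; AhR antagonists tested in combination with standard-of-care and investigational agents. Top concentration at or near clinical Cmax (else 10 microM), half-log dilutions; growth expressed as percent test/control.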", "data": [{"smiles": "CCN(c1cc(-c2ccc(CN3CCOCC3)cc2)cc(C(=O)NCc2c(C)cc(C)[nH]c2=O)c1C)C1CCOCC1", "note": "+ Cc1ccccc1N=Nc1ccc(NC(=O)c2ccnn2C)c(C)c1", "values": [{"measurement": "IC50", "setting": "second compound 0.1 µM", "result": "> 3000", "unit": "nM"}, {"measurement": "IC50", "setting": "second compound 0.316 µM", "result": "> 3000", "unit": "nM"}, {"measurement": "IC50", "setting": "second compound 1 µM", "result": "> 3000", "unit": "nM"}, {"measurement": "IC50", "setting": "second compound 3.16 µM", "result": "> 3000", "unit": "nM"}, {"measurement": "IC50", "setting": "second compound 10 µM", "result": 114, "unit": "nM"}, {"measurement": "viability, T/C", "setting": "second compound 0.1 µM, first compound 0.00949 µM", "result": 116, "unit": "%"}, {"measurement": "viability, T/C", "setting": "second compound 0.1 µM, first compound 0.03 µM", "result": 111, "unit": "%"}, {"measurement": "viability, T/C", "setting": "second compound 0.1 µM, first compound 0.0949 µM", "result": 104, "unit": "%"}, {"measurement": "viability, T/C", "setting": "second compound 0.1 µM, first compound 0.3 µM", "result": 80.5, "unit": "%"}, {"measurement": "viability, T/C", "setting": "second compound 0.1 µM, first compound 0.949 µM", "result": 78.8, "unit": "%"}, {"measurement": "viability, T/C", "setting": "second compound 0.1 µM, first compound 3 µM", "result": 79, "unit": "%"}, {"measurement": "viability, T/C", "setting": "second compound 0.316 µM, first compound 0.00949 µM", "result": 117, "unit": "%"}, {"measurement": "viability, T/C", "setting": "second compound 0.316 µM, first compound 0.03 µM", "result": 110, "unit": "%"}, {"measurement": "viability, T/C", "setting": "second compound 0.316 µM, first compound 0.0949 µM", "result": 94.5, "unit": "%"}, {"measurement": "viability, T/C", "setting": "second compound 0.316 µM, first compound 0.3 µM", "result": 89.8, "unit": "%"}, {"measurement": "viability, T/C", "setting": "second compound 0.316 µM, first compound 0.949 µM", "result": 80.8, "unit": "%"}, {"measurement": "viability, T/C", "setting": "second compound 0.316 µM, first compound 3 µM", "result": 68.5, "unit": "%"}, {"measurement": "viability, T/C", "setting": "second compound 1 µM, first compound 0.00949 µM", "result": 106, "unit": "%"}, {"measurement": "viability, T/C", "setting": "second compound 1 µM, first compound 0.03 µM", "result": 108, "unit": "%"}, {"measurement": "viability, T/C", "setting": "second compound 1 µM, first compound 0.0949 µM", "result": 108, "unit": "%"}, {"measurement": "viability, T/C", "setting": "second compound 1 µM, first compound 0.3 µM", "result": 87.2, "unit": "%"}, {"measurement": "viability, T/C", "setting": "second compound 1 µM, first compound 0.949 µM", "result": 71, "unit": "%"}, {"measurement": "viability, T/C", "setting": "second compound 1 µM, first compound 3 µM", "result": 65.7, "unit": "%"}, {"measurement": "viability, T/C", "setting": "second compound 3.16 µM, first compound 0.00949 µM", "result": 98.6, "unit": "%"}, {"measurement": "viability, T/C", "setting": "second compound 3.16 µM, first compound 0.03 µM", "result": 95.5, "unit": "%"}, {"measurement": "viability, T/C", "setting": "second compound 3.16 µM, first compound 0.0949 µM", "result": 78.8, "unit": "%"}, {"measurement": "viability, T/C", "setting": "second compound 3.16 µM, first compound 0.3 µM", "result": 69.6, "unit": "%"}, {"measurement": "viability, T/C", "setting": "second compound 3.16 µM, first compound 0.949 µM", "result": 57.8, "unit": "%"}, {"measurement": "viability, T/C", "setting": "second compound 3.16 µM, first compound 3 µM", "result": 60.1, "unit": "%"}, {"measurement": "viability, T/C", "setting": "second compound 10 µM, first compound 0.00949 µM", "result": 49.1, "unit": "%"}, {"measurement": "viability, T/C", "setting": "second compound 10 µM, first compound 0.03 µM", "result": 62.3, "unit": "%"}, {"measurement": "viability, T/C", "setting": "second compound 10 µM, first compound 0.0949 µM", "result": 47.9, "unit": "%"}, {"measurement": "viability, T/C", "setting": "second compound 10 µM, first compound 0.3 µM", "result": 45.8, "unit": "%"}, {"measurement": "viability, T/C", "setting": "second compound 10 µM, first compound 0.949 µM", "result": 43.3, "unit": "%"}, {"measurement": "viability, T/C", "setting": "second compound 10 µM, first compound 3 µM", "result": 40.6, "unit": "%"}]}, {"smiles": "Nc1ccn(C2OC(CO)C(O)C2(F)F)c(=O)n1", "note": "(stereo not given) + Cc1cncc(-c2nc(NCCc3c[nH]c4ccccc34)c3ncn(C(C)C)c3n2)c1", "values": [{"measurement": "IC50", "setting": "second compound 0.1 µM", "result": "< 31.6", "unit": "nM"}, {"measurement": "IC50", "setting": "second compound 0.316 µM", "result": "< 31.6", "unit": "nM"}, {"measurement": "IC50", "setting": "second compound 1 µM", "result": "< 31.6", "unit": "nM"}, {"measurement": "IC50", "setting": "second compound 3.16 µM", "result": "< 31.6", "unit": "nM"}, {"measurement": "IC50", "setting": "second compound 10 µM", "result": "< 31.6", "unit": "nM"}, {"measurement": "viability, T/C", "setting": "second compound 0.1 µM, first compound 0.0316 µM", "result": 3.33, "unit": "%"}, {"measurement": "viability, T/C", "setting": "second compound 0.1 µM, first compound 0.1 µM", "result": 4.05, "unit": "%"}, {"measurement": "viability, T/C", "setting": "second compound 0.1 µM, first compound 0.316 µM", "result": 4.69, "unit": "%"}, {"measurement": "viability, T/C", "setting": "second compound 0.1 µM, first compound 1 µM", "result": 4.03, "unit": "%"}, {"measurement": "viability, T/C", "setting": "second compound 0.1 µM, first compound 3.16 µM", "result": 3.99, "unit": "%"}, {"measurement": "viability, T/C", "setting": "second compound 0.1 µM, first compound 10 µM", "result": 4.46, "unit": "%"}, {"measurement": "viability, T/C", "setting": "second compound 0.316 µM, first compound 0.0316 µM", "result": 3.3, "unit": "%"}, {"measurement": "viability, T/C", "setting": "second compound 0.316 µM, first compound 0.1 µM", "result": 3.9, "unit": "%"}, {"measurement": "viability, T/C", "setting": "second compound 0.316 µM, first compound 0.316 µM", "result": 3.76, "unit": "%"}, {"measurement": "viability, T/C", "setting": "second compound 0.316 µM, first compound 1 µM", "result": 4.54, "unit": "%"}, {"measurement": "viability, T/C", "setting": "second compound 0.316 µM, first compound 3.16 µM", "result": 4.43, "unit": "%"}, {"measurement": "viability, T/C", "setting": "second compound 0.316 µM, first compound 10 µM", "result": 3.99, "unit": "%"}, {"measurement": "viability, T/C", "setting": "second compound 1 µM, first compound 0.0316 µM", "result": 3.48, "unit": "%"}, {"measurement": "viability, T/C", "setting": "second compound 1 µM, first compound 0.1 µM", "result": 3.69, "unit": "%"}, {"measurement": "viability, T/C", "setting": "second compound 1 µM, first compound 0.316 µM", "result": 3.49, "unit": "%"}, {"measurement": "viability, T/C", "setting": "second compound 1 µM, first compound 1 µM", "result": 4.33, "unit": "%"}, {"measurement": "viability, T/C", "setting": "second compound 1 µM, first compound 3.16 µM", "result": 3.22, "unit": "%"}, {"measurement": "viability, T/C", "setting": "second compound 1 µM, first compound 10 µM", "result": 3.99, "unit": "%"}, {"measurement": "viability, T/C", "setting": "second compound 3.16 µM, first compound 0.0316 µM", "result": 5.82, "unit": "%"}, {"measurement": "viability, T/C", "setting": "second compound 3.16 µM, first compound 0.1 µM", "result": 4.2, "unit": "%"}, {"measurement": "viability, T/C", "setting": "second compound 3.16 µM, first compound 0.316 µM", "result": 4.2, "unit": "%"}, {"measurement": "viability, T/C", "setting": "second compound 3.16 µM, first compound 1 µM", "result": 4.17, "unit": "%"}, {"measurement": "viability, T/C", "setting": "second compound 3.16 µM, first compound 3.16 µM", "result": 4.29, "unit": "%"}, {"measurement": "viability, T/C", "setting": "second compound 3.16 µM, first compound 10 µM", "result": 3.8, "unit": "%"}, {"measurement": "viability, T/C", "setting": "second compound 10 µM, first compound 0.0316 µM", "result": 8.48, "unit": "%"}, {"measurement": "viability, T/C", "setting": "second compound 10 µM, first compound 0.1 µM", "result": 8.12, "unit": "%"}, {"measurement": "viability, T/C", "setting": "second compound 10 µM, first compound 0.316 µM", "result": 3.15, "unit": "%"}, {"measurement": "viability, T/C", "setting": "second compound 10 µM, first compound 1 µM", "result": 2.99, "unit": "%"}, {"measurement": "viability, T/C", "setting": "second compound 10 µM, first compound 3.16 µM", "result": 2.64, "unit": "%"}, {"measurement": "viability, T/C", "setting": "second compound 10 µM, first compound 10 µM", "result": 2.75, "unit": "%"}]}]}
